Source: publication PMC12867150, “A fungi-derived cyclic peptide enhances Th9-mediated antitumor immunity by targeting ZAP70 and SREBP1” (The Journal of Clinical Investigation, 2025)
Values joined by “and” are separate entries in the source; they are usually repeats but may differ in a detail not shown here. Equal entries are not always repeated.

What was measured:
[1] = system: Raji lymphoma cells
Experimental: For infection, human T cells were activated for 40 hours with plate-bound anti-CD3 (BioLegend, clone OKT3, 5 μg/mL) and soluble anti-CD28 antibodies (BioLegend, clone CD28.2, 2 μg/mL) antibodies and then resuspended in viral supernatant (MOI = 5) supplemented with recombinant human IL-2 (100 U/mL) and polybrene (10 μg/mL). The cell-virus mixture was subjected to spinoculation at 550g for 2 hours at room temperature, followed by incubation for 24 hours. Transduced CAR T cells were harvested on days 5 or 7 after activation for downstream functional assays.
The cytotoxic activity of CD19-targeting CAR T cells was evaluated using a luciferase-based bioluminescence assay. Raji cells stably expressing firefly luciferase (ffLuc) were resuspended in RPMI 1640 medium supplemented with 10% FBS and seeded into 24-well plates. CAR T cells were added at various effector-to-target (E:T) ratios, while tumor-only wells were included as negative controls. After 20 hours of coculture, 20,000 cells from each tumor-only control well were harvested, washed with PBS, resuspended in 100 μL of lysis buffer, and transferred to a black 96-well plate. Luminescence intensity was measured using a multimode plate reader, and the percentage of specific lysis was calculated as follows: % Cytotoxicity = 1 – (luminescence of coculture well/luminescence of tumor-only control well).

[2] = system: Th9 signature genes (Irf4, Batf3, Batf, and Il9); test: Quantitative RT-PCR of Th9 signature genes (Figure 1J); assay type: cell-based, mouse
Experimental: Total RNA was extracted from T cells using RNAex Pro Reagent (AG, catalog AG21102) following the manufacturer’s instructions. First-strand complementary DNA (cDNA) was synthesized using the Hifair III 1st Strand cDNA Synthesis SuperMix (YEASEN, catalog 11137ES10). Quantitative real-time PCR (qRT-PCR) was conducted on a QuantStudio 3 Real-Time PCR System (Thermo Fisher Scientific) using ChamQ Universal SYBR qPCR Master Mix (Vazyme, catalog Q711-02) and gene-specific primers (Tsingke Biotech).
For normalization, mouse samples were referenced to Gapdh or Actb, and human samples were normalized to GAPDH. Relative gene expression was calculated using the ΔΔCt method. Primer sequences are listed in Supplemental Table 5.

[3] = system: endogenous CD8+ T cells; test: Cytokines and granzyme B/perforin in endogenous CD8+ T cells (Figure 3H, S4D-F); assay type: in vivo, mouse; parameters: TNF-α expression / IFN-γ expression / Expression of IFN-g of endogenous CD8⁺ T cells in tumor / Expression of TNF-α of endogenous CD8⁺ T cells in tumor: unit not given here; conditions: for Expression of IFN-g of endogenous CD8⁺ T cells in tumor: Supplemental Figure 4D; for Expression of TNF-α of endogenous CD8⁺ T cells in tumor: Supplemental Figure 4E; for Expression of GzmB+Perforin+ of endogenous CD8⁺ T cells in tumor: Supplemental Figure 4F
Experimental: C57BL/6 mice were subcutaneously injected with 5 × 10^5 B16-OVA melanoma cells. Five days after tumor implantation, mice received an intravenous infusion of 2 × 10^6 in vitro–differentiated Th9 cells (cultured for 5 days), which were derived from OT-II CD45.1 donor mice, accompanied by 4 × 10^5 OVA peptide–pulsed DCs via the tail vein. To enhance T cell engraftment and facilitate lymphodepletion, a single intraperitoneal injection of cyclophosphamide (200 mg/kg, Sigma, catalog C0768) was administered 1 day prior to T cell transfer. Mice were euthanized at designated time points for the collection and analysis of spleens, tumor-draining lymph nodes, and tumor tissues.
Details regarding staining panels (human and mouse), reagents (including clones and catalog numbers), acquisition settings, compensation/controls, and analysis procedures are provided in Supplemental Methods.
BioLegend, Cat. No. 422301 or Mouse TruStain FcX™, BioLegend, Cat. No. 101319) for 10 minutes at 4°C. For surface marker detection, cells were stained with fluorochrome-conjugated monoclonal antibodies in 96-well V-bottom plates and incubated on ice for 30 minutes. After staining, cells were washed twice and resuspended in FACS buffer for analysis.
Prior to intracellular cytokine staining, cells were restimulated for 4 hours with PMA (Absin, Cat. No. abs9107), ionomycin (Sigma-Aldrich, Cat. No. I0634), and brefeldin A (MedChemExpress, Cat. No. HY-16592). For intracellular cytokine staining, cells were first surface-stained as described above, then fixed and permeabilized using the BD Cytofix/Cytoperm™ kit (BD Biosciences, Cat. No. 554714) according to the manufacturer ’s protocol. Intracellular proteins were stained with directly conjugated antibodies targeting IL-9, IL-17a, IL-4, IFN-γ, TNF-α, FOXP3, p-ZAP70, Perforin, and […]
Antibodies used for mouse samples included those against IL-9 (PE, clone RM9A4, Biolegend, Cat. No. 514104), IFN-γ (PE, clone XMG1.2, Biolegend, Cat. No.
Cat. No. 103138), CD4 (APC/Cy7, clone E-AB-F1353UJ, Elabscience, Cat. No.
AF18028), CD8α (PerCP/Cy5.5, clone E-AB-F1104UJ, Elabscience, Cat. No. […]
clone E-AB-F1187UH, Elabscience, Cat. No. AF19854), TNF-α (BV421, clone MP6-XT22, Biolegend, Cat. No. 506328), FOXP3 (PE, clone FJK-16s, eBioscience, Cat. No.
Perforin (APC, clone S16009A, Biolegend, Cat. No. 154303) and Granzyme B (APC, clone QA16A02, Biolegend, Cat. No. 372203). For human samples, antibodies against CD4 (PerCP/Cy5.5, clone RPA-T4, Biolegend, Cat. No. 300530; APC/Cy7, clone OKT4, Biolegend, Cat. No. 317418), CD19 (APC/Cy7, clone SJ25C1, Biolegend, Cat.
No. 363009), IFN-γ (PE, clone 4S.B3, Biolegend, Cat. No. 502509), IL-9 (PE, clone

[4] = system: SREBP1; test: CETSA of SREBP1 (Figure 6D-E); assay type: binding; conditions: result in words
Experimental: Jurkat or 293T cells were washed twice with PBS and resuspended in PBS containing protease and phosphatase inhibitors. Cells were lysed by 3 cycles of liquid nitrogen snap-freezing and thawing at room temperature. […] One aliquot from each group was maintained at room temperature, and the others were heated for 3 minutes at 3 °C increments from 43°C to 64°C. Samples were then analyzed by SDS-PAGE and immunoblotting to assess protein thermal stability and compound binding.

[5] = EpA-treated Th9, ΔΔCt, individual replicates, n = 3
[6] = endogenous CD8+, spleen, individual mice, n = 4

anteiso-C15 Leu7 surfactin [EpA]
cytotoxicity against Raji cells [1]: significantly greater cytotoxicity | Batf3 relative mRNA expression [2, 5]: 1.532 and 2.109 and 2.3014 | Batf relative mRNA expression [2, 5]: 1.713 and 1.736 and 1.548 | Il9 relative mRNA expression [2, 5]: 23.4757 and 53.1262 and 48.3738 | Irf4 relative mRNA expression [2, 5]: 1.345 and 1.289 and 1.126 | Th9-associated transcription factors and effector cytokines ([2]; result in words): significantly upregulated | GzmB+ PRF1+ gate number ([3]; CD8+ T cells in tumors, representative flow plot, Figure S4F): 30.0 | GzmB and Perforin expression [3, 6]: 76.8 and 76 and 70.2 and 67.3 | IFN-γ expression [3, 6]: 11.6 and 15.2 and 19.5 and 6.9 | TNF-α expression [3, 6]: 6.15 and 4.55 and 6.06 and 5 | TNF-α expression of CD8+ T cells ([3]; spleen, result in words): remained unchanged | granzyme B+ perforin+ CD8+ T cells ([3]; spleen, result in words): pronounced increase | Expression of IFN-g of endogenous CD8⁺ T cells in tumor ([3]; replicate 1): 2162 | Expression of IFN-g of endogenous CD8⁺ T cells in tumor ([3]; replicate 2): 2256 | Expression of IFN-g of endogenous CD8⁺ T cells in tumor ([3]; replicate 3): 2381 | Expression of IFN-g of endogenous CD8⁺ T cells in tumor ([3]; replicate 4): 2246 | Expression of TNF-α of endogenous CD8⁺ T cells in tumor ([3]; replicate 1): 989 | Expression of TNF-α of endogenous CD8⁺ T cells in tumor ([3]; replicate 2): 542 | Expression of TNF-α of endogenous CD8⁺ T cells in tumor ([3]; replicate 3): 1324 | Expression of TNF-α of endogenous CD8⁺ T cells in tumor ([3]; replicate 4): 780 | Expression of GzmB+Perforin+ of endogenous CD8⁺ T cells in tumor ([3]; replicate 1): 28.2 | Expression of GzmB+Perforin+ of endogenous CD8⁺ T cells in tumor ([3]; replicate 2): 30 | Expression of GzmB+Perforin+ of endogenous CD8⁺ T cells in tumor ([3]; replicate 3): 29.9 | Expression of GzmB+Perforin+ of endogenous CD8⁺ T cells in tumor ([3]; replicate 4): 58.8 | TNF-α expression of CD8+ T cells ([3]; tumors, result in words): upregulated TNF-α expression | thermal stability of SREBP1 [4]: enhanced thermal stability of SREBP1
